Assay [1] deals with T1, Macrophage migration inhibitory factor (MIF) (Homo sapiens, UniProt P14174).
T1 sequence (P14174 2-115): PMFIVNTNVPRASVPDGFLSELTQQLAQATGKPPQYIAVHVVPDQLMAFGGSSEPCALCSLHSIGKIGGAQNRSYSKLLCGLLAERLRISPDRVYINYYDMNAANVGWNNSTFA

The next assay has as its target murine MIF (Mus musculus, UniProt P34884). Put plainly: dopachrome tautomerase inhibition assay, recombinant mouse MIF. Format: biochemical.

Molecules are shown by their SMILES.

As a reminder, the IC50 is the concentration that inhibits the measured activity by half.

As to `O=C(O)C(=O)Cc1ccc(O)cc1` [4-HPP, 4-hydroxyphenylpyruvate], the “keto-enol tautomerase kinetics (Michaelis-Menten), enol-HPP/borate at 306 nm” value in assay [1] is recorded as “(B) the substrate 4-HPP for MIF-induced keto-enol tautomerization”.
As to `CS(=O)(=O)Nc1cc2occ(NC=O)c(=O)c2cc1Oc1ccccc1` [T-614, iguratimod], the IC50 on murine MIF came out at 5.2 µM.

For the origin of these results see publication PMC10976746 (Molecular Medicine, 2024).
